Test results from patent publication US5929099A, “Pharmaceutical composition for inhibiting the growth of cancers” (Procter & Gamble Co., priority 1996, dated 1999).
Values after ≈ are worked out from the molar mass of the structure shown. Like-named read-outs stand apart in the source and are kept apart here.

Columns and labels:
[1] = tested on: lung tumor cells (A-549); test: Related study, lung tumor cells, optical density (Table 3); assay type: cell-based, human; details: for Optical Density: 0-Control 0.600
Text: (§1) Table 3 summarizes the results

[2] = tested on: breast tumor cells (MCF-7); test: Related study, breast tumor cells, optical density (Table 3); assay type: cell-based; details: for Optical Density: 0-Control 0.245
Text: as §1

[3] = tested on: colon tumor cells (HT-29); test: Related study, colon tumor cells, optical density (Table 3); assay type: cell-based, human; details: for Optical Density: 0-Control 0.398
Text: as §1

[4] = tested on: HIV-1 in chronic infected U1 cells (HIV monocytes); test: HIV chronic study, monocyte HIV replication; assay type: cell-based; details: Human immunodeficiency virus 1, Monocyte; 60 μg/ml; read-out: suppressed replication in the HIV monocytes
Procedure: (§2) These cells were treated with test samples.

[5] = tested on: HIV-1 in chronic infected ACH-2 cells (T-cell); test: HIV chronic study, T-cell HIV replication; assay type: cell-based; details: Human immunodeficiency virus 1, ACH-2; 60 μg/ml; increase; read-out: T-cell HIV replication was increased
Procedure: as §2

[6] = tested on: HIV; test: In vitro acute model for HIV, viral replication; assay type: cell-based; details: read-out: inhibited viral replication
Procedure: In an in vitro acute model for HIV carbendazim inhibited viral replication by 100% at 4 μg/ml and AZT inhibited viral replication by 98% at 1 μg/ml. Thiabendazole inhibited viral replication by 98% at 60 μg/ml.

[7] = tested on: HT29 colon tumor cells; test: MTT cell viability, colon tumor cells (Table 1); assay type: cell-based; details: Homo sapiens, HT-29, 120 h, approx. 5 days, read-out: EC-50 Result
Procedure: (§3) The following cell culture tests were performed to test the toxicity of the benzimidazole compounds on colon, breast and lung human tumor cells. The viability of the cells were tested by looking at MTT (3-[4,5-dimethylthiazol-2-yl]-2,5-diphenyltetrazolium bromide) reduction. MTT assay is a well known measure of cell viability.
(§4) The colon tumor cells (HT29 from American Type Culture Collection (ATCC)) and the breast cells (MX1 from cell lines from ATCC) were cultured in Eagle's Miminal Essential Medium with 10% fetal bovine serum. The lung tumor cells (A549 from ATCC cell lines) were cultured in Ham's F12 medium with 10% fetal bovine serum.
(§5) The tumor cells were passaged and seeded into culture flasks at the desired cell densities. The culture medium was decanted and the cell sheets were washed twice with phosphate buffered saline (PBS). The cells were trypsinized and triturated prior to seeding the flasks. Unless otherwise indicated the cultures were incubated at 37±1° C. in a humidified atmosphere of 5±1% carbon dioxide in air. The cultures were incubated until they were 50-80% confluent.
(§6) The cells were subcultured when the flasks were subconfluent. The medium was aspirated from the flasks and the cell sheets rinsed twice with PBS. Next, the Trypsin Solution was added to each flask to cover the cell sheet. The Trypsin Solution was removed after 30-60 seconds and the flasks were incubated at room temperature for two to six minutes. When 90% of the cells became dislodged, growth medium was added. The cells were removed by trituration and transferred to a sterile centrifuge tube. The concentration of cells in the suspension was determined, and an appropriate dilution was made to obtain a density of 5000 cells/ml. The cells were subcultured into the designated wells of the 96-well bioassay plates (200 microliter cell suspension per well). PBS was added to all the remaining wells to maintain humidity. The plates were then incubated overnight before test article treatment.
(§7) Each dose of test article was tested by treating quadruplicate wells of cultures with 100 microliter of each dilution. Those wells designated as solvent controls received an additional 100 microliter of methanol control; negative controls wells received an additional 100 microliters of treatment medium. PBS was added to the remaining wells not treated with test article or medium. The plates were then incubated for approximately 5 days.
(§8) At the end of the 5 day incubation, each dose group was examined microscopically to assess toxicity. A 0.5 mg/ml dilution of MTT was made in treatment medium, and the dilution was filtered through a 0.45 micrometer filter to remove undissolved crystals. The medium was decanted from the wells of the bioassy plates. Immediately thereafter, […] of the filtered MTT solution was added to all test wells except for the two untreated blank test wells. The two blank wells received 200 microliters of treatment medium. The plates were returned to the incubator for about 3 hours. After incubation, the MTT containing medium was decanted. […] was added to each well and the plates were shaken at room temperature for about 2 hours.
(§9) The absorbance at 550 mn (OD550) of each well was measured with a Molecular Devices (Menlo Park, Calif.) VMax plate reader.
(§10) The mean OD550 of the solvent control wells and that of each test article dilution, and that of each of the blank wells and the positive control were calculated. The mean OD550 of the blank wells was subtracted from the mean of the solvent control wells, and test article wells, respectively to give the corresponding mean OD550. [formula]
(§11) Dose response curves were prepared as semi-log plots with % of control on the ordinate (linear) and the test article concentration on the abscissa (logarithmic). The EC50 was interpolated from the plots for each test article.
(§12) For the test articles administered in methanol, separate responses were prepared to correct for the methanol data. […]

[8] = tested on: MX1 breast tumor cells; test: MTT cell viability, breast tumor cells (Table 1); assay type: cell-based; details: Homo sapiens, 120 h, approx. 5 days, read-out: EC-50 Result
Procedure: as §3, §4, §5, §6, §7, §8, §9, §10, §11, §12

[9] = tested on: A549 lung tumor cells; test: MTT cell viability, lung tumor cells (Table 1); assay type: cell-based; details: Homo sapiens, A549, 120 h, approx. 5 days, read-out: EC-50 Result
Procedure: as §3, §4, §5, §6, §7, §8, §9, §10, §11, §12

[10] = Toxicity to normal healthy cells (Table 2); assay type: cell-based; details: read-out: EC-50 (the source's name)
Text: The EC50 is the concentration at which one half of the cells are killed.
(§13) In normal healthy cells, the following results were obtained.

[11] = tested on: normal healthy cells; test: Toxicity to normal healthy cells, overall comparison; assay type: cell-based; details: versus adriamycin
Text: as §13

[12] = tested on: MX1 breast cancer tumors; test: Mouse model for breast cancer, subcutaneous tumor growth; assay type: in vivo; details: 500 mg/kg; MX1 implanted subcutaneously
Procedure: (§14) In a mouse model for breast, lung and colon cancer Carbendazim slowed tumor growth. MX1 breast cancer tumors implanted subcutaneously under the mice skin were treated with 500 mg/kg of Carbendazim. Tumor growth was slowed by 42%. Carbendazim slowed tumor growth in lung A549 tumors implanted subcutaneously under the mice skin by 57% at the same dose. In a screening test of HT29 tumors implanted subcutaneously under the mice skin, tumor growth was slowed 54% at 2500 mg/kg dose of Carbendazim.

[13] = tested on: lung A549 tumors; test: Mouse model for lung cancer, subcutaneous tumor growth; assay type: in vivo; details: same dose (500 mg/kg); A549 implanted subcutaneously
Procedure: as §14

[14] = tested on: HT29 tumors; test: Mouse model for colon cancer, subcutaneous tumor growth; assay type: in vivo; details: 2500 mg/kg; HT29 implanted subcutaneously; screening test
Procedure: as §14

[15] = tested on: leukemia, P388; test: In vivo mouse model for leukemia, life span
[16] = tested on: melanoma, B 16; test: In vivo mouse model for melanoma, life span
[17] = bronchial cells, Broncheal Cells, first value
[18] = bronchial cells, Broncheal Cells, second value
[19] = kerotinoyle cells, second value

SMILES: c1ccc2[nH]c(-c3cscn3)nc2c1 [Thiabendazole, 2-(4-thiazolyl)-1 H-benzimidazole]
- killing of tumor cells [1]: effectively killed these cells
- Optical Density ([1]; 0.87 ppm): 1.32
- Optical Density ([1]; 3.46 ppm): 1.12
- Optical Density ([1]; 17.3 ppm): 0.851
- Optical Density ([1]; 35 ppm): 0.411
- Optical Density ([1]; 173 ppm): 0.007
- killing of tumor cells [2]: effectively killed these cells
- Optical Density ([2]; 0.87 ppm): 0.507
- Optical Density ([2]; 3.46 ppm): 0.466
- Optical Density ([2]; 17.3 ppm): 0.258
- Optical Density ([2]; 35 ppm): 0.025
- Optical Density ([2]; 173 ppm): 0.007
- killing of tumor cells [3]: effectively killed these cells
- Optical Density ([3]; 0.87 ppm): 0.852
- Optical Density ([3]; 3.46 ppm): 0.713
- Optical Density ([3]; 17.3 ppm): 0.204
- Optical Density ([3]; 35 ppm): 0.011
- Optical Density ([3]; 173 ppm): 0.005
- inhibition at 60 µg/mL [4]: 74%
- activation at 60 µg/mL [5]: 26%
- inhibition at 60 µg/mL ([6]; Human immunodeficiency virus 1, 60 μg/ml): 98%

SMILES: CCCCNC(=O)n1c(NC(=O)OC)nc2ccccc21 [benomyl, methyl 1-(butylcarbamoyl)2-benzimidazolecarbamate]
- IC50 ([7]; HT29, first column): 0.742 µg/mL (≈ 2.56 µM)
- IC50 ([7]; HT29, second column): 0.747 µg/mL (≈ 2.57 µM)
- IC50 ([8]; MX1, first column): 1.42 µg/mL (≈ 4.89 µM)
- IC50 ([8]; MX1, second column): 2.42 µg/mL (≈ 8.34 µM)
- IC50 ([9]; A549, first column): 0.98 µg/mL (≈ 3.38 µM)
- IC50 ([9]; A549, second column): 1.02 µg/mL (≈ 3.51 µM)
- CC50 [10, 17]: 0.728 µg/mL (≈ 2.51 µM)
- CC50 [10, 18]: 0.682 µg/mL (≈ 2.35 µM)
- CC50 ([10]; fibroblasts, first value): 3.24 µg/mL (≈ 11.2 µM)
- CC50 ([10]; fibroblasts, second value): 2.81 µg/mL (≈ 9.68 µM)
- CC50 ([10]; kerotinoyle cells, first value): 3.26 µg/mL (≈ 11.2 µM)
- CC50 [10, 19]: 2.4 µg/mL (≈ 8.27 µM)
- toxicity to normal healthy cells relative to adriamycin [11]: much less toxic to normal healthy cells than adriamycin

SMILES: COC(=O)Nc1nc2ccccc2[nH]1 [carbendazim, methyl 2-benzimidazole carbamate]
- IC50 ([7]; HT29, first column): 0.621 µg/mL (≈ 3.25 µM)
- IC50 ([7]; HT29, second column): 0.662 µg/mL (≈ 3.46 µM)
- IC50 ([8]; MX1, first column): 0.829 µg/mL (≈ 4.34 µM)
- IC50 ([8]; MX1, second column): 0.856 µg/mL (≈ 4.48 µM)
- IC50 ([9]; A549, first column): 0.856 µg/mL (≈ 4.48 µM)
- IC50 ([9]; A549, second column): 0.836 µg/mL (≈ 4.37 µM)
- CC50 [10, 17]: 0.32 µg/mL (≈ 1.67 µM)
- CC50 [10, 18]: 0.506 µg/mL (≈ 2.65 µM)
- CC50 ([10]; fibroblasts, first value): 1.52 µg/mL (≈ 7.95 µM)
- CC50 ([10]; fibroblasts, second value): 1.42 µg/mL (≈ 7.43 µM)
- CC50 ([10]; kerotinoyle cells, first value): 0.752 µg/mL (≈ 3.93 µM)
- CC50 [10, 19]: 0.822 µg/mL (≈ 4.3 µM)
- toxicity to normal healthy cells relative to adriamycin [11]: much less toxic to normal healthy cells than adriamycin
- Tumor growth was slowed by [12]: 42%
- slowed tumor growth by [13]: 57%
- tumor growth was slowed [14]: 54%
- increased the life span of the mice versus control ([15]; 1000 mg/kg): 129%
- increased the life span of the mice versus control ([15]; 2000 mg/kg): 148%
- increased the life span of the mice versus control ([15]; 4000 mg/kg): 189%
- increased the life span versus control ([16]; 1000 mg/kg): 131%
- increased the life span versus control ([16]; 2000 mg/kg): 163%
- increased the life span versus control ([16]; 4000 mg/kg): 187%
- inhibition at 4 µg/mL ([6]; Human immunodeficiency virus 1, 4 μg/ml): 100%
